Source: the NIST ThermoML archive (doi:10.1021/je900478c)

Test: xn = mol fraction of the nth substance listed
Conditions: 101 kPa, Liquid; for viscosity: Capillary tube (Ostwald / Ubbelohde) method; for mass density: Vibrating tube method

CCCCOCCOCCO [3,6-dioxa-1-decanol] + O
Conditions	mass density, 283.15 K [kg/m3]	mass density, 293.15 K [kg/m3]	mass density, 303.15 K [kg/m3]	mass density, 313.15 K [kg/m3]	mass density, 323.15 K [kg/m3]	viscosity, 283.15 K [mPa·s]	viscosity, 293.15 K [mPa·s]	viscosity, 303.15 K [mPa·s]	viscosity, 313.15 K [mPa·s]	viscosity, 323.15 K [mPa·s]
x1 = 0.00199	1000.2	998.59	995.87	992.68	–	–	–	–	–	–
x1 = 0.003	1000.41	998.79	996.01	992.86	–	–	–	–	–	–
x1 = 0.00498	1001.05	999.2	996.31	993.28	–	–	–	–	–	–
x1 = 0.00617	1001.43	999.48	996.53	993.43	–	–	–	–	–	–
x1 = 0.00706	1001.75	999.68	996.67	993.51	–	–	–	–	–	–
x1 = 0.00794	1002	999.88	996.81	993.62	–	–	–	–	–	–
x1 = 0.00892	1002.32	1000.11	996.95	993.66	–	–	–	–	–	–
x1 = 0.00993	1002.65	1000.34	997.07	993.71	–	–	–	–	–	–
x1 = 0.01492	1004.27	1001.44	997.66	993.62	–	–	–	–	–	–
x1 = 0.02056	1005.74	1002.03	997.51	993.05	–	–	–	–	–	–
x1 = 0.0238	1006.36	1002.2	997.18	992.61	–	–	–	–	–	–
x1 = 0.02697	1006.66	1002.11	997	992.19	–	–	–	–	–	–
x1 = 0.03015	1006.78	1001.94	996.61	991.64	–	–	–	–	–	–
x1 = 0.03953	1006.53	1001.04	995.23	989.79	–	–	–	–	–	–
x1 = 0.06038	1005.13	998.81	992.28	986.16	–	–	–	–	–	–
x1 = 0.07987	1003.42	996.64	989.68	983.24	–	–	–	–	–	–
x1 = 0.1	1001.67	994.55	987.21	979.73	971.95	8.644	5.684	3.974	2.914	2.216
x1 = 0.2	992.63	984.71	976.63	968.47	960.1	12.36	7.986	5.482	3.942	2.943
x1 = 0.2999	985.44	977.27	968.97	960.58	951.9	13.32	8.637	5.93	4.259	3.173
x1 = 0.4	979.51	971.27	962.91	954.51	945.89	13.06	8.55	5.913	4.27	3.195
x1 = 0.5	974.9	966.63	958.27	949.82	941.29	12.36	8.183	5.713	4.161	3.133
x1 = 0.6	971.46	963.17	954.74	946.32	937.75	11.49	7.708	5.442	3.998	3.033
x1 = 0.7	968.77	960.45	952.05	943.62	935.03	10.58	7.203	5.144	3.816	2.918
x1 = 0.7998	966.62	958.25	949.8	941.34	932.8	9.748	6.727	4.857	3.638	2.804
x1 = 0.8999	964.58	956.18	947.72	939.34	930.8	9.038	6.309	4.601	3.474	2.697
x1 = 1	962.57	954.16	945.74	937.35	928.85	8.301	5.86	4.323	3.295	2.58
